Data set [1] addresses T1, catalytic domain of human collagenase-3 (MMP-13) (Homo sapiens, UniProt P45452).
T1 construct: Determination of the Enzymatic Activity of the Catalytic Domain of Human Collagenase-3 (MMP-13); purchased INVITEK, Berlin 30 100 803
The experiment in a line: Enzymatic activity of the catalytic domain of human collagenase-3 (MMP-13), fluorogenic substrate. Format: biochemical. The following applies: APMA-activated proenzyme, pH 7.5, read-out: Matrix metalloproteinase inhibition MMP-13 (IC50). The protocol:
Determination of the Enzymatic Activity of the Catalytic Domain of Human Collagenase-3 (MMP-13).
Activation of the proenzyme:
2 parts by volume of proenzyme were incubated with 1 part by volume of APMA solution at 37° C. for 1.5 hours. The APMA solution was prepared from a 10 mmol/l p-aminophenylmercuric acetate solution in 0.1 mmol/l NaOH by dilution with 3 parts by volume of Tris/HCl buffer pH 7.5 (see below). The pH was adjusted to between 7.0 and 7.5 by adding 1 mmol/l HCl. After activation of the enzyme it was diluted with the Tris/HCl buffer to a concentration of 1.67 μg/ml.
The enzymic activity was measured by incubating 10 μl of enzyme solution with 10 μl of a 3% strength (v/v) buffered dimethyl sulfoxide solution (reaction 1) for 15 minutes. The enzyme inhibitor activity was measured by incubating 10 μl of enzyme solution with 10 μl of a 3% strength (v/v) buffered dimethyl sulfoxide solution which contained the enzyme inhibitor (reaction 2).
The enzymic reaction both in the case of reaction 1 and in the case of reaction 2 was followed after addition of 10 μl of a 3% strength (v/v) aqueous dimethyl sulfoxide solution which contains 0.075 mmol/l of the substrate by fluorescence spectroscopy (328 nm (extinction)/393 nm (emission)).
The enzymic activity has been presented as increase in extinction/minute. The effect of the inhibitor was calculated as percentage inhibition by the following formula:
% inhibition=100−[(increase in extinction/minute in reaction 2)/(increase in extinction/minute in reaction 1)×100].
The IC50, which is the concentration of inhibitor which is necessary for 50% inhibition of the enzymic activity, was determined graphically by plotting the percentage inhibitions at various inhibitor concentrations.
The buffer solution contained 0.05% Brij (Sigma, Deisenhofen, Germany) and 0.1 mol/l of Tris/HCl, 0.1 mol/l of NaCl, 0.01 mol/l of CaCl2 (pH=7.5).
The enzyme solution contained 1.67 μg/ml of the enzyme domain. The substrate solution contained 0.075 mmol/l of the fluorogenic substrate (7-methoxycoumarin-4-yl)acetyl-Pro-Leu-Gly-Leu-3-(2′,4′-dinitrophenyl)-L-2,3-diaminopropionyl-Ala-Arg-NH2 (Bachem, Heidelberg, Germany).

Data set [2] concerns the target T2, catalytic domain of human stromelysin (MMP-3) (Homo sapiens, UniProt P08254).
T2 construct: Enzymatic Activity of the Catalytic Domain of Human Stromelysin (MMP-3); made in house
The experiment in a line: Enzymatic activity of the catalytic domain of human stromelysin (MMP-3), fluorogenic substrate. Format: biochemical. The following applies: pH 7.5, 15 min preincubation, read-out: Matrix metalloproteinase inhibition MMP-3 (IC50). The method, then:
(§1) Preparation and Determination of the Enzymatic Activity of the Catalytic Domain of Human Stromelysin (MMP-3) and of Neutrophil Collagenase (MMP-8).
(§2) The two enzymes stromelysin (MMP-3) and neutrophil collagenase (MMP-8) were prepared by the method of Ye et al. (Biochemistry; 31 (1992) pages 11231-11235). The enzymic activity or the effect of the enzyme inhibitor was measured by incubating 10 μl of enzyme solution with 10 μl of a 3% strength (v/v) buffered dimethyl sulfoxide solution which contained the enzyme inhibitor where appropriate, for 15 minutes. After addition of 10 μl of a 3% strength (v/v) aqueous dimethyl sulfoxide solution which contained 1 mmol/l of the substrate, the enzymic reaction was followed by fluorescence spectroscopy (328 nm (ex)/393 nm(em)).
(§3) The enzymic activity is presented as increase in extinction/minute. The IC50 values listed in Table 1 were determined as the inhibitor concentrations leading in each case to 50% inhibition of the enzyme.
(§4) The buffer solution contained 0.05% Brij (Sigma, Deisenhofen, Germany) and 0.1 mol/l of Tris/HCl, 0.1 mol/l of NaCl, 0.01 mol/l of CaCl2 and 0.1 mol/l of piperazine-N,N′-bis[2-ethanesulfonic acid] (pH=7.5).
(§5) The MMP-3 enzyme solution contained 2.3 μg/ml and the MMP-8 enzyme solution 0.6 μg/ml of one of the enzyme domains prepared by the method of Ye et al. The substrate solution contained 1 mmol/l of the fluorogenic substrate (7-methoxycoumarin-4-yl)acetyl-Pro-Leu-Gly-Leu-3-(2′,4′-dinitrophenyl)-L-2,3-diaminopropionyl-Ala-Arg-NH2 (Bachem, Heidelberg, Germany).

Data set [3] can be described thus: Pharmacokinetic measurements in mice after oral administration (n-in-one study). The class given is in vivo. The following applies: male C57/BL mice, oral by gavage about 7.5 mg per kg in PEG400/water 1:1, n-in-one, plasma. The method, then:
In each case 14 or 16 male C57/BL mice with an average weight of 20 to 28 g were used for the investigation, and divided into two groups. The animals had free access to feed and water. The substances were dissolved in PEG400/water 1:1 and administered orally by gavage in a concentration of about 7.5 mg per kg (equivalent to about […] per animal). In each case, 2 novel compounds and one comparative compound were previously dissolved separately, mixed and administered simultaneously (n-in-one study). Blood samples were taken after 0.25, 0.5, 1, 2, 4, 6, 8 and 24 h, and the substance concentration was determined quantitatively by HPLC-MS under standardized conditions as described below. The individual results were initially combined within the two groups and then the average was formed therefrom. The pharmacokinetic parameters are calculated using the noncompartmental model (extravascular input).
Quantification took place by HPLC-MS-MS. An HPLC system from Agilent (1100) was used, coupled to a PE-Sciex API 4000 (triple quadruple mass spectrometer). The column used was a ProdigyR 5μ ODS, flow rate […], injected volumes 16 μl. Eluent: acetonitrile-0.002% ammonium formate. Detection took place in MS/MS mode (multiple reaction monitoring) focussed on Q1 and selective masses (fragment) filtration on Q3.
Workup of the plasma samples beforehand took place as follows: admixture of 25 μl of 60/40 acetonitrile/0.1% formate plus 25 μl of internal standard 5 μg/ml in the same solvent, plus 25 μl of blank plasma or sample plasma, plus 200 μl of acetonitrile. Mixing for 5 min was followed by centrifugation (3 min, 5000 g) and then pipetting of 200 μl into the measurement vessels.
Cmax is the maximum plasma concentration reached at one of the sampling times. AUC “area under the curve”, time course of the decrease in concentration and Cmax determine the magnitude of the value.

Data set [4] has as its target T3, catalytic domain of neutrophil collagenase (MMP-8) (Homo sapiens, UniProt P22894).
T3 construct: Catalytic Domain of Human Stromelysin (MMP-3) and of Neutrophil Collagenase (MMP-8); made in house
The experiment in a line: Enzymatic activity of the catalytic domain of neutrophil collagenase (MMP-8), fluorogenic substrate. Format: biochemical. The following applies: pH 7.5, 15 min preincubation, read-out: Matrix metalloproteinase inhibition MMP-8 (IC50). The method, then:
as §1, §2, §3, §4, §5

The text below walks through data of US20100099663A1, “4-TRIFLUOROMETHOXYPHENOXYBENZOL-4'-SULFONIC ACIDS, METHOD FOR THE PRODUCTION AND USE THEREOF IN MEDICAMENTS” (SANOFI-AVENTIS DEUTSCHLAND GMBH, priority 2004, published 2010).

One may read the IC50 as the concentration that inhibits the measured activity by half. As a reminder, the AUC is the area under the concentration-time curve, a measure of exposure. Broadly, the Cmax is the peak of the concentration-time curve. Broadly, the t½ is the time in which the quantity being followed falls by half. Read a low t½ as fast loss.

T3 sequence (P22894 100-262 limits assumed): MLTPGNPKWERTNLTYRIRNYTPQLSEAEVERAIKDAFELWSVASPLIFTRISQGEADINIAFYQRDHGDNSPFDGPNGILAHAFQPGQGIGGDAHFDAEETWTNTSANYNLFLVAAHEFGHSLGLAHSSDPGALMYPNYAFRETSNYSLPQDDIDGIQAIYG
T2 sequence (P08254 100-272 limits assumed): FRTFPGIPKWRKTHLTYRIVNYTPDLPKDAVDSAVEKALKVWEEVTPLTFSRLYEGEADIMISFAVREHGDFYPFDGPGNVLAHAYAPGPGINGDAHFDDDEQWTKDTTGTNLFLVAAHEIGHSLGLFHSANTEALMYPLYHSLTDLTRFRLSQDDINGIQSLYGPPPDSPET

Take `O=C(NO)C1c2ccccc2CCN1S(=O)(=O)c1ccc(Oc2ccc(OC(F)(F)F)cc2)cc1` (stereo not drawn) [Example 3, 2-[4-[4-Trifluoromethoxyphenoxy)benzenesulfonyl]-1,2,3,4-tetrahydroisoquinoline-1-(N-hydroxy)carboxamide]: the IC50 in data set [1] is 2 nM. For the same molecule, in data set [2], the IC50 stood at 28 nM. In data set [3], this molecule had an AUC of 2230 ng·h/mL, a Cmax of 1350 ng/mL and a t½ of 6.6 h. The IC50 in data set [4] is 3.6 nM.

On to `O=C(NO)C1C2CCOC2CCN1S(=O)(=O)c1ccc(Oc2ccc(OC(F)(F)F)cc2)cc1` (stereo not drawn) [Example 6, 5-[4-(4-Trifluoromethoxyphenoxy)benzenesulfonyl]octahydrofuro[3,2-c]pyridine-4-(N-hydroxy)carboxamide], for which the IC50 was 2 nM in data set [1], 24 nM in data set [2] and 4 nM in data set [4].

For the molecule `O=C(NO)C1C2CCCCC2CCN1S(=O)(=O)c1ccc(Oc2ccc(OC(F)(F)F)cc2)cc1` (stereo not drawn) [Example 4, 2-[4-(4-Trifluoromethoxyphenoxy)benzenesulfonyl]decahydroisoquinoline-1-(N-hydroxy)carboxamide], the IC50 in data set [1] was 4 nM; in data set [2], 69 nM; in data set [4], 14 nM.

In data set [3], `O=C(O)C1c2ccccc2CCN1S(=O)(=O)c1ccc(Oc2ccc(OC(F)(F)F)cc2)cc1` (stereo not drawn) [Example 10, 2-[4-(4-Trifluorophenoxy)benzenesulfonyl]-1,2,3,4-tetrahydroisoquinoline-1-carboxylic acid] came in with an AUC of 160 ng·h/mL, a Cmax of 240 ng/mL and a t½ of 1.8 h.

Turning to `O=C(NO)C1C2CCCCC2CCCN1S(=O)(=O)c1ccc(Oc2ccc(OC(F)(F)F)cc2)cc1` (stereo not drawn) [Example 7, 2-[4-(4-Trifluoromethoxyphenoxy)benzenesulfonyl]decahydrobenzo[c]azepine-1-(N-hydroxy)carboxamide], the IC50 in data set [1] was 2 nM; in data set [2], 24 nM; in data set [4] it was 4 nM.

For the molecule “5-[4-(4-Trifluoromethoxyphenoxy)benzenesulfonyl]octahydrofuro[3,2-c]pyridine-4-carboxylic acid [Example 5]”, the IC50 in data set [1] was 240 nM; in data set [2] it was 380 nM; in data set [4], 210 nM.

As to `COc1ccc(Oc2ccc(S(=O)(=O)N3CCc4ccccc4C3C(=O)NO)cc2)cc1` (stereo not drawn) [Example 9, 2-[4-(4-Methoxyphenoxy)benzenesulfonyl]-1,2,3,4-tetrahydroisoquinoline-1-N-hydroxycarboxamide, reference compound], the 50% inhibitory concentration (IC50) in data set [1] is 2.2 nM; in data set [2], 23 nM; in data set [4], 2.3 nM. The molecule also displayed an AUC in data set [3] of 250 ng·h/mL. Further, the highest level in data set [3] (Cmax) was 450 ng/mL. The t½ in data set [3] is reported as 1.5 h.
